“And” between values parts separate entries of the source, which are not always exact repeats. Equal entries are not always repeated. “Also recorded” adds a separate entry of the source.
Tests used:
[1] = test system: Notch target genes (HEY1, IL7R alpha, NOTCH1, 2 and 4); experiment: Peripheral Notch target gene expression versus exposure (gene panel, in words); format: in vivo, human; conditions: patients with ACC on twice daily dosing (n = 13); up to 1,000 mg (500 mg twice daily)
From the text: Archival tumor tissue (not older than 6 months prior to screening) or fresh tumor biopsy was required to characterize Notch alteration status by targeted genomic sequencing and/or NICD1 expression (via IHC) among the confirmatory cohort at baseline. Repeat biopsy on cycle 2 day 15 and at disease progression was optional. Serial whole blood samples (and/or bone marrow samples and saliva among patients with T-ALL/T-LBL) were obtained on day 1 of cycles 1–6 to evaluate the dynamics of Notch gene expression. Peripheral blood was collected with PaxGene tubes and frozen at −20°C until processing. RNA was extracted (Qiagen RNeasy Micro kit) from peripheral whole blood and analyzed by Nanostring with percent change in expression levels reported with respect to baseline normalized values.
Percent change (%) in peripheral blood cell Notch target gene expression was monitored among a subset of patients with ACC receiving twice daily dosing (n = 13).

[2] = test system: advanced solid tumors, adenoid cystic carcinoma (ACC); experiment: Antitumor efficacy and survival (RECIST v1.1 response, CBR, PFS, OS); format: in vivo, human
From the text: The study enrolled adults with histologically confirmed, locally advanced and/or metastatic solid tumors who had progressed on at least one line of prior systemic therapy (except for ACC) and relapsed/refractory T-ALL/LBL for whom no standard therapy was available. In dose escalation, participants with solid tumors with known or frequent Notch pathway–activating mutations were eligible (breast cancer, gastrointestinal tumors, hepatocellular carcinoma, osteosarcoma, malignant glomus tumor, and ACC), while the confirmatory cohort planned to enroll participants with selected tumor types (including T-ALL/LBL) and confirmed Notch pathway activation. Key eligibility criteria included patients ≥18 years of age with evaluable disease, Eastern Cooperative Oncology Group (ECOG) performance status 0–1, able to swallow capsules, and adequate organ function. Participants were excluded if they had clinically significant cardiac disease or thromboembolic events within the preceding 6 months, and drugs prolonging the QTc were avoided. A complete list of eligibility criteria is outlined in the Supplementary Materials and Methods.
Safety was assessed via monitoring of DLTs during the first treatment cycle, and of AEs, physical exam, and clinical lab results (hematology, coagulation, blood chemistry, urinalysis, and cardiac markers) throughout the study (Supplementary Table S1). 12-lead electrocardiograms and Holter safety monitoring with periodic cardiac imaging was employed. Efficacy assessments used RECIST v1.1 applied to CT/MRI scans performed at screening and every 8 weeks; or evaluated complete remission with complete hematologic recovery by National Comprehensive Cancer Network guideline criteria for T-ALL/T-LBL. Adherence to study drug administration was evaluated using both patient diaries and capsule counts.
The primary endpoint for dose escalation was the number of patients experiencing DLT during the first 28-day cycle of CB-103 and for the confirmatory phase, the incidence rate, severity, and relationship of AEs to CB-103. Secondary endpoints included assessment of clinical benefit rate [CBR; defined as achieving complete and/or partial response and/or stable disease (SD) at prespecified benchmarks], duration of response, progression-free survival (PFS) and overall survival (OS), and plasma pharmacokinetics.
The objective of the BLRM design ([10]) was to determine the MTD defined as the highest dose with less than 25% risk of the true DLT rate being above 33%. The MTD was considered reached if one of the following criteria was fulfilled: (i) if the posterior probability of the true DLT rate in the target interval (16%–33%) of the MTD was >50%, and (ii) at least 6 patients were treated at the MTD. Under this model, and accounting for dropouts and some additional patients enrolled to each cohort, approximately 55 patients were anticipated to enroll in dose escalation and approximately 45 patients in the confirmatory phase. Data were reported using 95% confidence intervals (CI) and survival endpoints (PFS, OS) are reported from the time of first treatment to the first of progression or death summarized by Kaplan–Meier estimates. All statistical analyses were analyzed using SAS v9.4 software.

[3] = ACC confirmatory cohort (n = 12), 500 mg once daily
[4] = All solid tumor patients (n = 76)

CC(C)(C)c1ccc(Oc2ccc(N)cn2)cc1 [CB-103]
Peripherally measured Notch target gene expression levels versus exposure/dose [1]: downregulation; also recorded: declined with increasing exposure | 3-month PFS (95% CI) [2, 3]: 10.9 (0.6–38.0) | Best overall response: Complete response [2, 3]: 0 n, % | Best overall response: Partial response [2, 3]: 0 n, % | Best overall response: Progressive disease [2, 3]: 7 (58) n, % | Best overall response: Stable disease [2, 3]: 3 (25) n, % | Best overall response: Unevaluable [2, 3]: 2 (17) n, % | Clinical benefit rate, 3 months (95% CI) [2, 3]: 25.0 (5.5–57.2) — — % | Median OS (95% CI) [2, 3]: 5.4 (1.3–5.4) months | Median PFS (95% CI) [2, 3]: 1.4 (0.8–2.3) months | Overall survival: No. of deaths [2, 3]: 4 (33) n, % | Progression-free survival: No. of events [2, 3]: 10 (83) n, % | 3-month PFS (95% CI) ([2]; All patients with ACC (n = 40)): 46.8 (30.4–61.7) | 6-month OS (95% CI) ([2]; All patients with ACC (n = 40)): 72.4 (53.1–84.8) % | 6-month PFS (95% CI) ([2]; All patients with ACC (n = 40)): 18.6 (7.9–32.8) % | 9-month PFS (95% CI) ([2]; All patients with ACC (n = 40)): 6.2 (1.1–17.8) | 12-month OS (95% CI) ([2]; All patients with ACC (n = 40)): 57.3 (37.5–73.0) % | 12-month PFS (95% CI) ([2]; All patients with ACC (n = 40)): 6.2 (1.1–17.8) | Best overall response: Complete response ([2]; All patients with ACC (n = 40)): 0 n, % | Best overall response: Partial response ([2]; All patients with ACC (n = 40)): 0 n, % | Best overall response: Progressive disease ([2]; All patients with ACC (n = 40)): 13 (33) n, % | Best overall response: Stable disease ([2]; All patients with ACC (n = 40)): 23 n, % and 23 (58%) n, % and 23 (58) n, % | Best overall response: Unevaluable ([2]; All patients with ACC (n = 40)): 4 (10) n, % | Clinical benefit rate, 3 months (95% CI) ([2]; All patients with ACC (n = 40)): 57.5 (40.9–73.0) % | Clinical benefit rate, 6 months (95% CI) ([2]; All patients with ACC (n = 40)): 27.5 (14.6–43.9) % | Clinical benefit rate, 9 months (95% CI) ([2]; All patients with ACC (n = 40)): 2.5 (0.1–13.2) % | Median OS (95% CI) ([2]; All patients with ACC (n = 40)): 18.4 months | Median PFS (95% CI) ([2]; All patients with ACC (n = 40)): 2.5 (1.5–3.7) months | Overall survival: No. of deaths ([2]; All patients with ACC (n = 40)): 15 (38) n, % | Progression-free survival: No. of events ([2]; All patients with ACC (n = 40)): 35 (88) n, % | 3-month PFS (95% CI) [2, 4]: 38.7 (26.5–50.6) | 6-month OS (95% CI) [2, 4]: 68.4 (54.4–78.9) % | 6-month PFS (95% CI) [2, 4]: 15.5 (7.5–26.0) % | 9-month PFS (95% CI) [2, 4]: 5.8 (1.7–14.3) | 12-month OS (95% CI) [2, 4]: 41.6 (28.0–54.7) % | 12-month PFS (95% CI) [2, 4]: 3.9 (0.7–11.6) | Best overall response: Complete response [2, 4]: 0 n, % | Best overall response: Partial response [2, 4]: 0 n, % | Best overall response: Progressive disease [2, 4]: 29 (38) n, % | Best overall response: Stable disease [2, 4]: 37 (49%) n, % and 37 (49) n, % | Best overall response: Unevaluable [2, 4]: 10 (13) n, % | Clinical benefit rate, 3 months (95% CI) [2, 4]: 48.7 (37.0–60.4) % | Clinical benefit rate, 6 months (95% CI) [2, 4]: 15.8 (8.4–26.0) % | Clinical benefit rate, 9 months (95% CI) [2, 4]: 1.3 (0.0–7.1) % | Median OS (95% CI) [2, 4]: 9.2 (6.3–18.4) months | Median PFS (95% CI) [2, 4]: 1.9 (1.4–3.2) months | Overall survival: No. of deaths [2, 4]: 33 (43%) n, % and 33 (43) n, % | Progression-free survival: No. of events [2, 4]: 59 (78) n, % | Objective responses ([2]; all 76 solid tumor patients): no objective responses | Duration of stable disease on study ([2]; case: locoregionally recurrent ACC, NOTCH-activating mutation present): 3 months | Tumor regression in right parapharyngeal mass ([2]; case: locoregionally recurrent ACC, NOTCH-activating mutation present (30 to 25 mm)): −17% | Tumor regression in dominant liver lesion ([2]; case: patient with metastatic ACC with rapid progression prior to study entry (26.1–19.4 mm)): −25.7% | Duration of stable disease on study ([2]; case: patient with metastatic ACC, dominant liver lesion): 8 months | Median OS ([2]; heavily pretreated ACC cohort): under 2 years | Duration of SD ([2]; one patient, NOTCH1-activated metastatic ACC with tumor BCL2 overexpression, 250 mg twice daily): 3 months | ACC patients exhibiting SD ([2]; patients with ACC (n = 40)): 58%
